Read-outs that look alike come from different tables or passages of the source.
Key:
TRPA1V1 = assay: Intracellular calcium (Fluo-4, FLIPR) activation of TRPA1V1 cells (co-expressing TRPA1 and TRPV1) by GRAS compounds; assay type: cell-based, human;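 note: HEK293 cells co-expressing TRPA1 and TRPV1, fluorescence read at 488/514 nm after baseline subtraction, recorded every 2 s over 10 min, ionomycin 10 µM and buffer as controls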
Method: TRPV1, TRPA1, TRPA1V1 and pcDNA3 cells were grown in 15 mL growth medium [high glucose DMEM (Dulbecco's modification of Eagle's medium) supplemented with 10% FBS (fetal bovine serum), 100 μg/mL penicillin/streptomycin, 100 μg/mL G418] in a 75 cm^2 flask for 3 days in a mammalian cell culture incubator at 33° C. and 5% CO2. TRP Cells were detached with 8 mL of PBS (without calcium or magnesium); for pcDNA3 cells, trypsin was used for releasing the cells. The detached cells were spun at low speed (800-900 rpm for 3 min) to pellet the cells. […] The cells were washed once with 45 mL assay buffer (1×HBSS, 20 mM HEPES) by low speed centrifugation (800-900 rpm for 3 min) and resuspended in 11 mL of the assay buffer in a reagent reservoir. […] The plates were set at room temperature for 30 min. The plates were read in a FLIPR^TETRA instrument (Molecular Devices, Sunnyvale, Calif.) at λex 488 nm and λem 514 nm to record baseline fluorescence following which 20 μL of test material at 1 mM or 100 μM final concentration for pure compounds in a GRAS library or 0.004% for extracts. For agonists, capsaicin 350 nM and AITC at 30 μM; and for controls, ionomycin 10 μM and buffer alone) was added to each well using the dispenser provided in the FLIPR. The data point was recorded every 2 seconds for a total of 10 min.
Average value for activation from three independent assay plates are presented as % of agonist value (AITC, 30 μM for TRPA1 and capsaicin, 350 nM for TRPV1. For TRPA1V1, we used AITC, 30 μM or capsaicin, 350 nM depending on if the compound is an A1 agonist or a V1 agonist. For compounds that activated both A1 and V1, we used AITC for normalization). Variation among triplicates was within 10% of each other. Assayed at 1 mM for pure compounds and 0.004% for extracts.

human TRPV1 = molecular target: T1, human TRPV1 (Homo sapiens, UniProt Q8NER1, M315I/T336M); assay: Intracellular calcium (Fluo-4, FLIPR) activation of TRPV1 cells by GRAS compounds; assay type: cell-based; settings: for activation at 100 µM / activation at 1000 µM: read-out: V1 activation, % of agonist value;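 for all read-outs here: TRPV1-expressing cells, FLIPR fluorescence at 488/514 nm with baseline subtracted, sampled every 2 s for 10 min after adding compound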
T1 construct: expressed in transfected cells; pcDNA3 control cells
T1 sequence (Q8NER1 whole entry M315I/T336M): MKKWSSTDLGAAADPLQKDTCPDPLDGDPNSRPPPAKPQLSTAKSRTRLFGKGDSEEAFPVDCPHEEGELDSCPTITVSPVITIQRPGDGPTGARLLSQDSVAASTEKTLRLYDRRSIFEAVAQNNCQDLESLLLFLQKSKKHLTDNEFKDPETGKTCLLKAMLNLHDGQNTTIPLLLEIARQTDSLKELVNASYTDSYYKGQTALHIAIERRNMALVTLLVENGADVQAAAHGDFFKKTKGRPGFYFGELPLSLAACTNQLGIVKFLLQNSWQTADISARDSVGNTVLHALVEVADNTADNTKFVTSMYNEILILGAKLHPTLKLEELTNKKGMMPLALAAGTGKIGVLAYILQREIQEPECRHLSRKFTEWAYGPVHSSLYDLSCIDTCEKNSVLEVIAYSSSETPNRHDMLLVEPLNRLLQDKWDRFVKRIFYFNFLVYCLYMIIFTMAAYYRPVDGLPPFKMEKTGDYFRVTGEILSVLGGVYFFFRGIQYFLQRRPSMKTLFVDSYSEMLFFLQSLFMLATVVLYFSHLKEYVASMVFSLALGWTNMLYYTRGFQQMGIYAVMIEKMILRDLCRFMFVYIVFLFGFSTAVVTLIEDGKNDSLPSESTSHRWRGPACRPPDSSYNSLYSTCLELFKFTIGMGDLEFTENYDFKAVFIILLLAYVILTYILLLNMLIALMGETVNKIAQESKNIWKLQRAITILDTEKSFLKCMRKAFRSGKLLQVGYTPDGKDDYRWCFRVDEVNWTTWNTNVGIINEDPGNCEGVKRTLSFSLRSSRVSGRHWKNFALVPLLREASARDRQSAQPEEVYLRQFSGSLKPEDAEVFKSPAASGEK

human TRPA1 = molecular target: T2, human TRPA1 (Homo sapiens, UniProt O75762, K186N/R3C/R58T); assay: Intracellular calcium (Fluo-4, FLIPR) activation of TRPA1 cells by GRAS compounds; assay type: cell-based; settings: for activation at 100 µM / activation at 1000 µM: read-out: A1 activation, % of agonist value;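 for all read-outs here: TRPA1-expressing cells, fluorescence read on a FLIPR Tetra (ex 488 nm, em 514 nm) every 2 s for 10 min after compound addition, baseline subtracted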
T2 construct: expressed in transfected cells; pcDNA3 control cells
T2 sequence (O75762 whole entry R3C/R58T/K186N): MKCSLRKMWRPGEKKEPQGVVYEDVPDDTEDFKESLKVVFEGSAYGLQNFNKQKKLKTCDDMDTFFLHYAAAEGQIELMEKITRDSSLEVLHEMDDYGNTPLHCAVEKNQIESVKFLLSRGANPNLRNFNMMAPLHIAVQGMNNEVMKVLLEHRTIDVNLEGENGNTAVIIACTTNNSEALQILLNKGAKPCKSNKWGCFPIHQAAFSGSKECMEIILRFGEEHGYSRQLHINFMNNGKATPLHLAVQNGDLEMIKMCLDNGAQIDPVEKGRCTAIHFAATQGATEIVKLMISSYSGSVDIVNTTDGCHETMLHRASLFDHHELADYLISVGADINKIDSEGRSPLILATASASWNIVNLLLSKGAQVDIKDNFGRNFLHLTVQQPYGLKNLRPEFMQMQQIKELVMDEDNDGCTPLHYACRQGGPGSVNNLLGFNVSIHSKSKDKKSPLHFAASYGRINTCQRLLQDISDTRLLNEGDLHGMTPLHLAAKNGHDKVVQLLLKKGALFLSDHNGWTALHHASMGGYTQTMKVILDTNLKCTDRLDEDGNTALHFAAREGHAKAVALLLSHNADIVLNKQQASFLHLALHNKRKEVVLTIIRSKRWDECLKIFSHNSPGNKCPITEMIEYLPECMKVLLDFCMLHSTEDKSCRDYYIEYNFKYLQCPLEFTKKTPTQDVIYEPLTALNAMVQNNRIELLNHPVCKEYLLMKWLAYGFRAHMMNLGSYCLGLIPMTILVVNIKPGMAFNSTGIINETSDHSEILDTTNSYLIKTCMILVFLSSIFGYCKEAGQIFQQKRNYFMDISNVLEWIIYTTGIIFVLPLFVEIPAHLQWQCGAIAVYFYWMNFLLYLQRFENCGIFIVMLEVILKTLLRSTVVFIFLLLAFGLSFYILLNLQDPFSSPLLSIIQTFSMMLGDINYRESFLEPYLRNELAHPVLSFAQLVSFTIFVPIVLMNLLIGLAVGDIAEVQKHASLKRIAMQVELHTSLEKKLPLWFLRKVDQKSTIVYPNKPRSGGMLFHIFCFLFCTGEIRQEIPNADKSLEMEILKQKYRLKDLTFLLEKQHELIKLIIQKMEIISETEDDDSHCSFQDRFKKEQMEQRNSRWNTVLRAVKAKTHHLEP

[1] = Table 1(a), 1 mM, relative to AITC 30 μM, average of three plates
[2] = Table 1(a), 1 mM, relative to capsaicin 350 nM, average of three plates
[3] = Table 1(b), 1 mM, relative to AITC 30 μM
[4] = Table 1(b), 1 mM, relative to capsaicin 350 nM
[5] = Table 1(a), 100 μM (*), relative to AITC 30 μM
[6] = Table 1(a), 100 μM (*), relative to capsaicin 350 nM
[7] = Table 1(i), 1 mM, relative to AITC 30 μM or capsaicin 350 nM depending on compound, […]
[8] = Table 1(i), 1 mM, relative to capsaicin 350 nM, […]
[9] = Table 1(i), 1 mM, relative to AITC 30 μM, […]
[10] = statement in description, see Table 1(i)
[11] = Table 1(c), 1 mM, relative to AITC 30 μM
[12] = Table 1(e), 100 μM (*), relative to AITC 30 μM
[13] = Table 1(c), 100 μM (*), relative to AITC 30 μM
[14] = Table 1(d), 100 μM (*), relative to AITC 30 μM
[15] = Table 1(g), 1 mM, relative to capsaicin 350 nM

Row | SMILES | A1V1 activation, % of agonist value (TRPA1V1; [1]) | A1V1 activation, % of agonist value (TRPA1V1; [3]) | activation at 1000 µM (human TRPV1; [2]) | activation at 1000 µM (human TRPA1; [1]) | activation at 1000 µM (human TRPA1; [3]) | other results
1 | CC/C=C\CCCCO [5-Octen-1-ol, (Z)] | 69.24% |  |  |  |  | V1 activation, % of agonist value (human TRPV1; [2]): 20.50%; A1 activation, % of agonist value (human TRPA1; [1]): 62.30%
2 | CC1COC(c2ccccc2)O1 (stereo not drawn) [Benzaldehyde propylene glycol acetal] |  | 78.33% |  |  |  | V1 activation, % of agonist value (human TRPV1; [4]): 34.38%; A1 activation, % of agonist value (human TRPA1; [3]): 48.03%
3 | Cc1nccnc1SCc1ccco1 [2-Furfurylthio-3-methylpyrazine] |  |  |  |  |  | A1V1 activation, % of agonist value (TRPA1V1; [5]): 80.9%; activation at 100 µM (human TRPV1; [6]): 31.3%; activation at 100 µM (human TRPA1; [5]): 80.7%
4 | CCOCc1ccc(O)c(OC)c1 [Vanillyl ethyl ether] | 59.64% |  | 67.6% | 38% |  | 
5 | CCCCCC/C=C/C=O [(E)-2-Nonenal] |  | 61.8% |  |  | 130% | activation at 1000 µM (human TRPV1; [4]): 89%
6 | CC(C)=CCCC(C)=CCCC(C)=CC=O [Farnesal] | 104.4% |  |  |  |  | V1 activation, % of agonist value (human TRPV1; [2]): 41.22%; A1 activation, % of agonist value (human TRPA1; [1]): 97.58%
7 | c1ccc2scnc2c1 [Benzothiazole] |  |  |  |  |  | A1V1 activation, % of agonist value (TRPA1V1; [5]): 74.4%; activation at 100 µM (human TRPV1; [6]): 33.4%; activation at 100 µM (human TRPA1; [5]): 51.3%
8 | CCCOC(=O)c1ccc(O)cc1 [Propylparaben] |  |  |  |  |  | A1V1 activation, % of agonist value (TRPA1V1; [7]): 2.1%; activation at 1000 µM (human TRPV1; [8]): 1.6%; activation at 1000 µM (human TRPA1; [9]): 93.2%; TRPA1 activation selectivity, in words (human TRPA1; [10]): TRPA1 activator which does not modulate TRPV1 or TRPA1V1
9 | O=C1CCCC1C1CCCC1 (stereo not drawn) [2-Cyclopentylcyclopentanone] |  | 90.8% |  |  | 25% | activation at 1000 µM (human TRPV1; [4]): 24%
10 | CCCCCCCCCCCCCCCC(=O)OC/C=C(C)/C=C/C=C(C)/C=C/C1=C(C)CCCC1(C)C [Retinol palmitate] | 76.97% |  | 32.8% | 76.4% |  | 
11 | Sc1ccc2ccccc2c1 [2-Napthlaenthiol] |  |  |  |  |  | A1V1 activation, % of agonist value (TRPA1V1; [5]): 85.2%; V1 activation, % of agonist value (human TRPV1; [6]): 120.3%; A1 activation, % of agonist value (human TRPA1; [5]): 66.3%
12 | CCCSSc1ccoc1C [Propyl 2-methyl-3-furyl disulfide] | 194.3% |  | 25% | 210% |  | A1V1 activation, % of agonist value (TRPA1V1; [11]): 242.5%; activation at 1000 µM (human TRPA1; [11]): 266%
13 | CCCCc1ccco1 [2-Butylfuran] | 62.77% |  | 20.2% | 68.5% |  | 
14 | CCCCOC(=O)c1ccc(O)cc1 [Butylparaben, Butyl 4-hydroxybenzoate] | 98.1% |  | 79.1% | 105% |  | A1V1 activation, % of agonist value (TRPA1V1; [12]): 127.3%; activation at 100 µM (human TRPA1; [12]): 98.7%
15 | CCCC1CC(=O)C=C(C)C1 (stereo not drawn) [3-Methyl-5-propyl-2-cyclohexen-1-one] |  | 101.0% |  |  | 69% | activation at 1000 µM (human TRPV1; [4]): 59.2%
16 | COc1cc(CCC(C)=O)ccc1O [Vanillylacetone] |  | 37.75% |  |  | 22.3% | activation at 1000 µM (human TRPV1; [4]): 60%
17 | CCC(S)C(C)=O (stereo not drawn) [3-Mercapto-2-pentanone] | 72.6% |  | 59.2% | 92% |  | A1V1 activation, % of agonist value (TRPA1V1; [13]): 100%; activation at 100 µM (human TRPA1; [13]): 103%

Row | SMILES | A1V1 activation, % of agonist value (TRPA1V1; [1]) | A1V1 activation, % of agonist value (TRPA1V1; [3]) | activation at 1000 µM (human TRPV1; [2]) | activation at 1000 µM (human TRPA1; [1]) | activation at 1000 µM (human TRPA1; [3]) | other results
18 | CCCC(=O)OC/C=C(\C)CCC=C(C)C [Geranyl butyrate] | 76.26% |  | 28.9% | 76.9% |  | 
19 | CC(C=O)Cc1ccc2c(c1)OCO2 (stereo not drawn) [Helional] | 71.85% |  |  |  |  | V1 activation, % of agonist value (human TRPV1; [2]): 23.38%; A1 activation, % of agonist value (human TRPA1; [1]): 78.00%
20 | OCCCCCc1ccccc1 [5-Phenyl-1-pentanol] |  | 52.1% |  |  | 119% | activation at 1000 µM (human TRPV1; [4]): 113%
21 | Cc1ccc(C(C)C)cc1O [Carvacrol] |  | 134.1% |  |  | 115% | activation at 1000 µM (human TRPV1; [4]): 84.6%
22 | CCCCC=CC(C)=O [3-Octen-2-one] | 45.60% |  | 30% | 52.7% |  | 
23 | C=CC(=O)CCCCC [1-Octen-3-one] | 98.9% |  | 63.2% | 118% |  | 
24 | CCCCCC1C(=O)CCC1CC(=O)OC (stereo not drawn) [Hedione, Methyl dihydrojasmonate] |  | 60.64% |  |  | 43.5% | A1V1 activation, % of agonist value (TRPA1V1; [11]): 59.58%; activation at 1000 µM (human TRPV1; [4]): 25.6%; activation at 1000 µM (human TRPA1; [11]): 54.4%
25 | CC(C)=CCC/C(C)=C/CO [Geraniol] |  |  |  |  | 82.5% | A1V1 activation, % of agonist value (TRPA1V1): 63.93%; activation at 1000 µM (human TRPV1): 42.2%
26 | CCCCC(=O)C(CCC)Sc1ccoc1C (stereo not drawn) [4-(2-Methyl-3-furylthio)-5-nonanone] |  |  |  |  |  | A1V1 activation, % of agonist value (TRPA1V1; [14]): 34.1%; A1V1 activation, % of agonist value (TRPA1V1; [15]): 64%; activation at 1000 µM (human TRPV1; [15]): 40.6%; activation at 100 µM (human TRPA1; [14]): 52.5%
27 | O=C(O)CC(O)C(=O)O (stereo not drawn) [Malic acid] |  |  |  |  |  | A1V1 activation, % of agonist value (TRPA1V1; [7]): 2.4%; activation at 1000 µM (human TRPV1; [8]): 67.5%; TRPV1 activation selectivity, in words (human TRPV1; [10]): TRPV1 activators which do not modulate TRPA1 or TRPA1V1; activation at 1000 µM (human TRPA1; [9]): 1.9%
28 | c1ccc(CCCc2ccccn2)cc1 [2-(3-Phenylpropyl)pyridine] | 74.53% |  | 21.5% | 76% |  | 
29 | CC(C)C(=O)OCc1ccc2c(c1)OCO2 [Piperonyl isobutyrate] |  | 82.33% |  |  | 61% | activation at 1000 µM (human TRPV1; [4]): 30%
30 | CC(=O)C(C)S (stereo not drawn) [3-Mercaptobutanone, 3-Mercapto-2-butanone] |  | 80.9% |  |  | 50.4% | A1V1 activation, % of agonist value (TRPA1V1; [14]): 53.3%; activation at 1000 µM (human TRPV1; [4]): 63.8%; activation at 100 µM (human TRPA1; [14]): 68.9%
31 | O=Cc1cc2ccccc2o1 [2-Benzofurancarboxaldehyde] | 102.3% |  | 57.6% | 91% |  | 
32 | CCCCCCCCC(=O)NCc1ccc(O)c(OC)c1 [Nonivamide, N-Vanillylnonanamide] |  |  |  |  |  | A1V1 activation, % of agonist value (TRPA1V1; [15]): 135.6%; A1V1 activation, % of agonist value (TRPA1V1; Table 1(i), 100 μM (*), relative to AITC 30 μM or capsaicin 350 nM depending on compound, values less than 20-25% considered inactive): 1.2%; activation at 100 µM (human TRPV1): 65.5%; activation at 1000 µM (human TRPV1): 91.4%; activation at 100 µM (human TRPA1): 69%
33 | C=C(C)[C@@H]1CC=C(CO)CC1 [Perillyl alcohol] | 73.28% |  | 20.4% | 82% |  | 
34 | CCCCCC(=O)CCCC(=O)O [5-Oxodecanoic acid] |  | 39.34% |  |  | 28.6% | activation at 1000 µM (human TRPV1; [4]): 53.4%
